Laboratory results taken from patent publication US11920158B2, “Cardiomyocyte maturation” (The Council of the Queensland Institute of Medical Research, priority 2016, dated 2024).
Where two headings read alike, the source gives them in different places.

Experiments:
[1] = test system: hPSC-CMs in human cardiac organoids (hCOs); test: Whole-mount immunostaining and image analysis of hCO (Ki-67, pH3, MLC2v, activated β-catenin, 8-OxoG, pATM, α-actinin, DNA); format: cell-based
Description: hCOs were fixed for 60 min with 1% paraformaldehyde (Sigma) at room temperature and washed 3× with PBS, after which they were incubated with primary antibodies (Table 1) in Blocking Buffer, 5% FBS and 0.2% Triton-X-100 (Sigma) in PBS overnight at 4° C. Cells were then washed in Blocking Buffer 2× for 2 h and subsequently incubated with secondary antibodies (Table 1) and Hoescht (1:1000) overnight at 4° C. They were washed in Blocking Buffer 2× for 2 h and imaged in situ or mounted on microscope slides using Fluoromount-G (Southern Biotech). For screening hCO were imaged using a Leica DMi8 high content imaging microscope for in situ imaging. Custom batch processing files were written in Matlab R2013a (Mathworks) to remove the background, calculate the image intensity, and export the batch data to an Excel (Microsoft) spreadsheet. For more detailed images an Olympus IX81 confocal microscope or a Nikon Diskovery Spinning Disk confocal microscope for mounted imaging. For cell cycle analysis experiments 3 random fields of view were imaged and manually quantified for proliferation. These were added together to calculate the percentage of hPSC-CM proliferation in each hCO.

[2] = test system: human cardiac organoids (hCOs); test: Force analysis of hCO in Heart-Dyno (pole deflection, contraction parameters); format: cell-based; details: for EC50: read-out: calcium EC50 for force of contraction
Description: CTRL medium: α-MEM GlutaMAX (ThermoFisher Scientific), 10% fetal bovine serum (FBS) (ThermoFisher Scientific), 200 μM L-ascorbic acid 2 phosphate sesquimagnesium salt hydrate (Sigma) and 1% Penicillin/Streptomycin (ThermoFisher Scientific). For each hCO, 5×10^4 cardiac cells in CTRL medium were mixed with collagen I to make a 3.5 μl final solution containing 2.6 mg/ml collagen I and 9% Matrigel. The bovine acid-solubilized collagen I (Devro) was first salt balanced and pH neutralized using 10×DMEM and 0.1 M NaOH, respectively, prior to mixing with Matrigel and cells. The mixture was prepared on ice and pipetted into the Heart-Dyno. The Heart-Dyno was then centrifuged at 100×g for 10 s to ensure the hCO form halfway up the posts. The mixture was then gelled at 37° C. for 30 min prior to the addition of CTRL medium to cover the tissues (150 μl/hCO). The Heart-Dyno design facilitates the self-formation of tissues around in-built PDMS exercise poles (designed to deform ˜0.07 μm/μN). The medium was changed every 2-3 days (150 μl/hCO). hCOs were cultured in CTRL medium for formation and then changed to serum-free media as indicated for experiments. For all screening experiments, after hCO formation, hCOs were cultured in serum-free conditions comprising DMEM without glucose, glutamine and phenol red (ThermoFisher Scientific) supplemented with 4% B27 (with or without insulin) (ThermoFisher Scientific), 1% GlutaMAX (ThermoFisher Scientific), 200 μM L-ascorbic acid 2 phosphate sesquimagnesium salt hydrate and 1% Penicillin/Streptomycin (ThermoFisher Scientific). […] A timeline of the finalized hCO fabrication, culture and maturation protocol can be found in FIG. 1m.
The pole deflection was used to approximate the force of contraction. A Leica DMi8 inverted high content Imager was used to capture a 10 s time-lapse of each hCO contracting in real time at 37° C. Custom batch processing files were written in Matlab R2013a (Mathworks) to convert the stacked TIFF files to AVI, track the pole movement (using vision.PointTracker), determine the contractile parameters, produce a force-time figure, and export the batch data to an Excel (Microsoft) spreadsheet.
Custom batch processing files were written in Matlab R2013a (Mathworks) to convert the stacked TIFF files to AVI, track the pole movement (using vision.PointTracker), determine the contractile parameters, produce a force-time figure, and export the batch data to an Excel (Microsoft) spreadsheet. The follow formulae were used to determine the contractile force at each time-point. Maximum deflection at the end of a rectangular cantilever fixed at one end with force applied at a specified distance:
Based on the parameters of our system: E=1500 kPa, b=0.5 mm, h=0.2 mm, L=0.7 mm, and x=0.35 mm (hCO half-way up the poles), k=14 μN/μm.

[3] = test system: adult cardiac muscle; details: ref (23), read-out: calcium EC50; cited from earlier work
[4] = test system: human cardiac organoids (hCOs); test: ELISAs for lactate dehydrogenase and cardiac troponin I (cell viability of hCO); format: cell-based; details: addition of palmitate, serum-free culture of hCOs
[5] = test system: human cardiac organoids (hCOs); test: hCO tissue viability (viable, intact and functional tissues); format: cell-based; details: prolonged presence within the maturation media

**Q.** Which “proliferating (Ki-67) hPSC-CMs (α-actinin)” value ([1]; hCOs cultured in MM, 24 h treatment) does the source give for `Cc1c[nH]c(-c2cnc(NCCNc3ccc(C#N)cn3)nc2-c2ccc(Cl)cc2Cl)n1` [CHIR99021, reference compound] here?
**A.** blunted proliferative response

**Q.** What about the “proliferation (α-actinin and Ki-67 staining)” value ([1]; hCOs, 5 μm CHIR vs 0.05% DMSO) of the same molecule?
**A.** pro-proliferative effects

**Q.** Which EC50 ([2]; hCOs cultured in CTRL medium) does the source give for `[Ca+2]` [calcium] here?
**A.** 300 µM

**Q.** What about the EC50 ([2]; hCOs cultured in MM) of the same molecule?
**A.** 1000 µM

**Q.** And the EC50 [3]?
**A.** 2600 to 6000 µM

**Q.** For `COc1cc(N)c(Cl)cc1C(=O)NC1CCN(CCCOc2ccc(F)cc2)CC1OC` (centres unmarked) [cisapride, reference compound], which relaxation time ([2]; hCO, pro-arrhythmogenic compound with hERG toxicity) is on record?
**A.** prolong relaxation time

**Q.** What does the source list for `CC(C)NCC(O)c1ccc(O)c(O)c1` (centres unmarked) [isoprenaline, reference compound]?
**A.** force of contraction ([2]; hCOs cultured in MM, culture medium 1.8 mM Ca2+ (no increase in CTRL medium)): increase in the force of contraction; rate of contraction ([2]; hCOs in both CTRL medium and MM): increased the rate of contraction; 50% contraction time ([2]; paced 1 Hz at the calcium EC50, both CTRL medium and MM hCO): decreased 50% contraction time

**Q.** What does the source list for `CCCCCCCCCCCCCCCC(=O)O` [palmitate, palmitic acid]?
**A.** MLC2v expression ([1]; addition of palmitate, serum-free with insulin, relative to 5.5 mM glucose without palmitate): increased; MLC2v expression ([1]; palmitate, absence of insulin): trend to increased MLC2v expression; lactate dehydrogenase levels [4]: unaffected; hCO force of contraction ([2]; 100 μM palmitate, absence of insulin, 0.5, 1 and 5.5 mM glucose): significantly higher forces; hCO force of contraction ([2]; addition of 10 μM and 100 μM palmitate, serum-free conditions with insulin, vs 0 μM palmitate): trend to increase

**Q.** Which results are given for “TGF-β1: TGFβ-1 growth factor (Peprotech)”?
**A.** cell death [5]: significant cell death; hCO function (force of contraction) ([2]; 0, 1, 3 and 10 ng/ml, day 2-5, 2-7 and 2-9, H9-derived hCOs): detrimental to hCO function; contractile function ([2]; prolonged presence within the maturation media): compromised the contractile function

**Q.** For “insulin: insulin, commonly used in serum-free medium supplements (B27 with insulin)”, which “activated β-catenin” value ([1]; 48 h, regardless of glucose or palmitate) is on record?
**A.** highly dependent on insulin

**Q.** What about the “re-activation of hPSC-CM proliferation (Ki-67)” value ([1]; addition of insulin after 11 days in MM) of the same molecule?
**A.** not sufficient to re-activate

**Q.** And the “hPSC-CM proliferation (Ki-67 expression)” value ([1]; serum-free conditions, 1 mM glucose and 10 μM palmitate)?
**A.** inducing hPSC-CM proliferation
